We go through 24 molecules from ChEMBL document CHEMBL1201862, “PubChem BioAssay data set” (2004).

Among the test systems are KM-20L2; XF498; HOP-18; SNB-78; M19-MEL; RXF 631; DMS-273; DMS-114; MDA-MB-435.
Test in all cases: DTP human tumour cell line panel, 48 h

The structures appear in SMILES notation.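 Cells were grown in 96-well plates and exposed to each compound for 48 hours at five concentrations; endpoints were interpolated linearly between bracketing concentrations, or set to the highest concentration if not reached. At the GI50, growth is halved.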 Active and inactive are the calls of the source. Rule as the data show it: active = GI50 up to about 1.1 µM and inactive = higher.

In the case of `CC(=O)OC1/C=C(\C)C(OC(C)=O)C/C=C(/C)CCC2C(/C=C/C1=O)C2(C)C` (stereo unspecified), the GI50 is > 100 µM (inactive) with KM-20L2; 35.7 µM (inactive) with XF498; > 100 µM (inactive) with HOP-18; > 100 µM (inactive) in the test with SNB-78; > 100 µM (inactive) in the test with M19-MEL; > 100 µM (inactive) in the test with RXF 631.

As to `O=C1CCC2COc3ccc(O)c1c32` (stereo unspecified), the GI50 with KM-20L2, in the test on DMS-273, with DMS-114, in the test with XF498, in the test on HOP-18 and in the test with SNB-78 was > 100 µM (inactive) each time. Further, in the test on M19-MEL, the GI50 was > 100 µM (inactive).

Consider `C=C1Oc2nc3ccccc3c(=O)n2C1(C)C`, for which the GI50 in the test with KM-20L2, with DMS-273, in the test with DMS-114, with XF498, with HOP-18 and with SNB-78 was > 100 µM (inactive) in each case. Also, the GI50 in the test with M19-MEL was > 100 µM (inactive).

In the case of `O=C1N(C2CCCCC2)CC12CCCCC2`, the GI50 in the test on KM-20L2 is > 100 µM (inactive); with DMS-273, > 100 µM (inactive); in the test on DMS-114, > 100 µM (inactive); with XF498, > 100 µM (inactive); in the test with HOP-18 it was 94.6 µM (inactive); with SNB-78, > 100 µM (inactive). Also, the GI50 with M19-MEL and in the test on RXF 631 was > 100 µM (inactive) throughout.

For `O=c1c2ccccc2nc(-c2ccc(Br)cc2)n1NC1OC(CO)C(O)C(O)C1O` (stereo unspecified), the GI50 is > 100 µM (inactive) in the test on KM-20L2; > 100 µM (inactive) in the test with DMS-273; 96.6 µM (inactive) in the test on DMS-114; > 100 µM (inactive) in the test with HOP-18; > 100 µM (inactive) in the test with SNB-78; > 100 µM (inactive) in the test with M19-MEL. The GI50 with RXF 631 was > 100 µM (inactive).

For `CCC1=CCN(c2ccc(C)cc2)OC1c1ccc(OC)cc1` (stereo unspecified), the GI50 with KM-20L2 was 66.5 µM (inactive); in the test on DMS-273, 69.8 µM (inactive); in the test with DMS-114, > 100 µM (inactive); in the test with XF498, 46.6 µM (inactive); with SNB-78, > 100 µM (inactive); with M19-MEL, 42.7 µM (inactive). Besides, the GI50 in the test on RXF 631 is 52.4 µM (inactive).

As for `c1ccc2c(c1)nnn2CNc1ccc(N2CCOCC2)cc1`, the GI50 with KM-20L2, in the test with DMS-273, with DMS-114, with XF498, with HOP-18 and with SNB-78 was > 100 µM (inactive) in each case. Moreover, the GI50 in the test on M19-MEL is > 100 µM (inactive).

On to `CCOC(=O)/C(=C/c1ccc[nH]1)P(=O)(OCC)OCC`, for which the GI50 in the test with KM-20L2, with DMS-273, in the test with DMS-114, with XF498, in the test with HOP-18 and in the test with SNB-78 was > 100 µM (inactive) throughout. Also, the GI50 in the test on M19-MEL and with RXF 631 was > 100 µM (inactive) each time.

On to `C(=C/c1nc2ccccc2o1)/c1ccc2c(c1)OCO2`, for which the GI50 in the test with KM-20L2 is 6.61 µM (inactive); in the test on DMS-273, 4.56 µM (inactive); in the test on DMS-114 it was 16.9 µM (inactive); with XF498, 20.5 µM (inactive); with HOP-18, 5.21 µM (inactive); in the test with SNB-78, 25.7 µM (inactive). Also, the GI50 in the test with M19-MEL is 21.2 µM (inactive).

Take `O=C1NC2OCC(O)C(O1)C2O` (stereo unspecified): the GI50 in the test on KM-20L2, in the test on DMS-273, in the test with DMS-114, in the test on XF498, in the test with HOP-18 and in the test with SNB-78 was > 100 µM (inactive) each time. Further, the GI50 with M19-MEL and in the test on RXF 631 was > 100 µM (inactive) in each case.

With `COc1ccc(OC)c(/C=C/NC=O)c1`, the GI50 with KM-20L2, with DMS-273, in the test on DMS-114, in the test with XF498, in the test with HOP-18 and in the test with SNB-78 was > 100 µM (inactive) throughout. The GI50 in the test on M19-MEL is > 100 µM (inactive).

For the molecule `C(=C\c1csnn1)/c1cccnc1`, the GI50 in the test with KM-20L2, in the test with DMS-114, with XF498, with HOP-18, in the test on SNB-78 and in the test on M19-MEL was > 100 µM (inactive) each time. Moreover, in the test with RXF 631, the GI50 is 81.7 µM (inactive).

As for `C[C@]12CC[C@H](OC3CCCCO3)CC1=CC[C@@H]1C2CC[C@]2(C)/C(=N/OCCC#N)CCC12` (stereo partly specified), the GI50 in the test on KM-20L2 is 3.78 µM (inactive); with DMS-273, 76.7 µM (inactive); with DMS-114, 4.76 µM (inactive); in the test on XF498, 4.62 µM (inactive); with HOP-18, > 100 µM (inactive); in the test with SNB-78 it was 21.9 µM (inactive). In addition, the GI50 is > 100 µM (inactive) in the test with M19-MEL and 33.6 µM (inactive) in the test on RXF 631.

Consider `CN(C)CC1CCCC1=O` (stereo unspecified), for which the GI50 with KM-20L2 is 1.67 µM (inactive); in the test on DMS-273, 1.55 µM (inactive); with MDA-MB-435, 4.39 µM (inactive); in the test with DMS-114, 1.08 µM (active); in the test on XF498, 0.687 µM (active); in the test with HOP-18, 1.73 µM (inactive). The results for the GI50 with SNB-78, with M19-MEL and with RXF 631 were 2.48 µM (inactive), 0.857 µM (active) and 0.138 µM (active), respectively.

In the case of `Cc1ccccc1N1C(=O)C2C=CC(n3[nH]c(=O)n(Cc4ccccc4)c3=O)CC2C1=O` (stereo unspecified), the GI50 in the test on KM-20L2, in the test on DMS-273, with DMS-114, in the test with XF498, in the test on HOP-18 and in the test with SNB-78 was > 100 µM (inactive) in each case. Further, the GI50 with M19-MEL was > 100 µM (inactive).

As for `CN(C)/N=C(/c1nc2ccc(Cl)cc2nc1O)C(O)c1ccc(C(O)/C(=N\N(C)C)c2nc3ccc(Cl)cc3nc2O)cc1` (stereo unspecified), the GI50 in the test on KM-20L2 is 84.9 µM (inactive); with DMS-114 it was 53.7 µM (inactive); in the test on M19-MEL, > 100 µM (inactive); in the test on RXF 631 it was 91.4 µM (inactive).

`CCOc1ccc(NC(=O)C(=O)CC(=O)c2c(C)[n+]([O-])c3ccccc3[n+]2[O-])cc1`: the GI50 in the test on KM-20L2 is > 100 µM (inactive); with DMS-273, > 100 µM (inactive); with DMS-114 it was > 100 µM (inactive); in the test on XF498, 59.8 µM (inactive); in the test with HOP-18, 24.9 µM (inactive); in the test on SNB-78 it was > 100 µM (inactive). The GI50 in the test on M19-MEL and in the test with RXF 631 was > 100 µM (inactive) each time.

Consider `COc1cc(C2C(C(=O)NCc3ccccc3)=C(C)NC(C)=C2C(=O)NCc2ccccc2)ccc1O`, for which the GI50 with KM-20L2 was 33.2 µM (inactive); with DMS-273, 29.4 µM (inactive); in the test on DMS-114 it was 39.4 µM (inactive); in the test with XF498, 61.5 µM (inactive); in the test with SNB-78 it was 32.8 µM (inactive); in the test with M19-MEL it was 39.4 µM (inactive). In the test with RXF 631, the GI50 is 27.3 µM (inactive).

Regarding `O=C1NC2(CCCCC2)C2CCCCC(O)C12` (stereo unspecified), the GI50 with KM-20L2, in the test on DMS-273, in the test on DMS-114, in the test on SNB-78, in the test on M19-MEL and with RXF 631 was > 100 µM (inactive) throughout.

For `COC(=O)c1cc2c(s1)C(=O)c1ccccc1-2`, the GI50 in the test on KM-20L2, in the test with DMS-273, in the test on DMS-114, in the test with HOP-18, with SNB-78 and in the test on M19-MEL was > 100 µM (inactive) each time. The GI50 in the test on RXF 631 is > 100 µM (inactive).

`Cc1ccc(N2Cc3c(ccc4ccccc34)OP2(=O)Oc2ccc(Cl)c(C)c2)cc1` (stereo unspecified): the GI50 in the test with KM-20L2 was > 100 µM (inactive); in the test on DMS-273, > 77.8 µM (inactive); in the test with DMS-114, > 67.1 µM (inactive); in the test with XF498 it was > 100 µM (inactive); in the test on HOP-18, > 61.1 µM (inactive); in the test with SNB-78 it was > 100 µM (inactive). In the test with M19-MEL, the GI50 was > 100 µM (inactive).

For the molecule `C=C1CCC2[C@@H](CCC3[C@]2(C)CCC[C@]3(C)C(=O)OC)C1CCO` (stereo partly specified), the GI50 with KM-20L2 was 9.66 µM (inactive); in the test on DMS-273, 10.5 µM (inactive); in the test on DMS-114, 5.11 µM (inactive); in the test with XF498 it was 10.2 µM (inactive); in the test on HOP-18, 16 µM (inactive); in the test on SNB-78, 16.3 µM (inactive). Moreover, the GI50 in the test on M19-MEL is 15 µM (inactive).

On to `COc1ccc(C2C3C(=O)C=CC(=O)C3[C@@H]2C)cc1OC` (stereo partly specified), for which the GI50 with KM-20L2 is > 100 µM (inactive); with DMS-273, 61.4 µM (inactive); in the test on DMS-114, 56.5 µM (inactive); with XF498 it was 56.1 µM (inactive); in the test on HOP-18, > 100 µM (inactive); with SNB-78 it was > 100 µM (inactive). Further, the GI50 in the test on M19-MEL and in the test on RXF 631 was > 100 µM (inactive) in each case.

With `C=C1C(=O)O[C@@H]2C[C@@]3(C)[C@H](O)CCC(=C)[C@@H]3C[C@H]12` [ASPERILIN], the GI50 with KM-20L2 is 7.53 µM (inactive); in the test on DMS-273 it was 8.38 µM (inactive); in the test on DMS-114, 14.4 µM (inactive); in the test on XF498, 2.59 µM (inactive); in the test on SNB-78, 6.04 µM (inactive); with M19-MEL, 6.68 µM (inactive). Further, in the test on RXF 631, the GI50 is 13.6 µM (inactive).

The GI50 is the concentration that inhibits growth by half.
